Reference: US11504349B2, “Composition for preventing or treating TNF-related diseases, containing novel derivative as active ingredient, and method for inhibiting TNF activity by using same” (ILAB, priority 2017, dated 2022)

Key:
TNF = TNF (Homo sapiens, UniProt P01375); experiment: TNF-neutralization bioassay: TNF-induced cell death of LM cells (MTT); type: cell-based; conditions: compound 50 μM, TNF 20 ng/ml, actinomycin D, LM cells, 24 hours
Procedure: First, the addition of recombinant TNF to mouse fibroblast LM cells induces cell death, and thus, by using the same, the TNF-neutralization bioassay was constructed. In other words, LM cells were pretreated with TNF (20 ng/ml) and the compounds synthesized in the above examples at various concentrations (5×10^4 cells/well), and a sensitizer actinomycin D ([…]) was added, and cultured in a CO2 incubator for 24 hours, and then the MTT assay was carried out. At this time, 10 μl of MTT (5 mg/ml stock) was added, reacted for 4 hours, and then dissolved in DMSO to measure the absorbance at 570 nm. First, the TNF cell death inhibition/neutralization action of TNF-target expected compounds at single concentration (50 or 10 μM) was measured. Second, IC50 values were determined by treating with the compounds having an excellent effect at different concentrations. The % inhibition of TNF was calculated using the following formula: % inhibition of TNF=(OD value of a group treated with TNF and compound−OD value of TNF treated group/(OD value of TNF untreated group−OD value of TNF treated group)×100.
IC50 values were statistically analyzed using Prism 6 (GraphPad) (IC50: 50% inhibitory concentration, CC50: 50% cytotoxic concentration).

Sequence of TNF (P01375 77-233 limits assumed): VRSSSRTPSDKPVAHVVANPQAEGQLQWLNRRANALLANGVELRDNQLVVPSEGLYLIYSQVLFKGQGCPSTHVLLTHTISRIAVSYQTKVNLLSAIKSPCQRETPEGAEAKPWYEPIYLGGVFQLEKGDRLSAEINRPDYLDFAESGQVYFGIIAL

| Compound | inhibition at 50 µM (TNF) | melting point |
| --- | --- | --- |
| O=C(O)c1c(-c2ccccc2Cl)oc2ccccc2c1=O [Example 11, 2-(2-chlorophenyl)-3-carboxy-(4H)-4-benzopyranone] | 60.6% | 133 to 135 °C |
| COc1cccc2c(=O)c(C(=O)O)c(-c3ccco3)oc12 [Example 2, 2-(2-furanyl)-3-carboxy-8-methoxy-(4H)-4-benzopyranone] | 46.6% | 195 to 197 °C |
| Cc1ccc2c(=O)c(C(=O)O)c(-c3cccc(F)c3)oc2c1 [Example 42, 2-(3-fluorophenyl)-3-carboxy-7-methyl-(4H)-4-benzopyranone] | 23% | 178 to 181 °C |
| Cc1ccc2oc(-c3ccc(Cl)cc3)c(C(=O)O)c(=O)c2c1 [Example 70, 2-(4-chlorophenyl)-3-carboxy-6-methyl-(4H)-4-benzopyranone] | 28.9% | 212 to 227 °C |
| Cc1cccc(-c2oc3ccc(C)cc3c(=O)c2C(=O)O)c1 [Example 27, 2-(3-methylphenyl)-3-carboxy-6-methyl-(4H)-4-benzopyranone] | 65.2% | 192 to 195 °C |
| Cc1cccc2c(=O)c(C(=O)O)c(-c3cccs3)oc12 [Example 31, 2-(2-thiophenyl)-3-carboxy-8-methyl-(4H)-4-benzopyranone] | 24.8% | 205 to 206 °C |
| COc1ccc2c(=O)c(C(=O)O)c(-c3cccc(F)c3)oc2c1 [Example 1, 2-(3-fluorophenyl)-3-carboxy-7-methoxy-(4H)-4-benzopyranone] | 39.1% | 214 to 215 °C |
| COc1ccc(-c2oc3c(C)cccc3c(=O)c2C(=O)O)cc1OC [Example 37, 2-(3,4-dimethoxyphenyl)-3-carboxy-8-methyl-(4H)-4-benzopyranone] | 33.4% | 210 to 212 °C |
| COc1ccc2c(=O)c(C(=O)O)c(-c3cccc(C)c3)oc2c1 [Example 6, 2-(3-methylphenyl)-3-carboxy-7-methoxy-(4H)-4-benzopyranone] | 46% | 183 to 184 °C |
| COc1ccc(-c2oc3cc(C)ccc3c(=O)c2C(=O)O)cc1OC [Example 38, 2-(3,4-dimethoxyphenyl)-3-carboxy-7-methyl-(4H)-4-benzopyranone] | 30.9% | 200 to 201 °C |
| Cc1ccc2c(=O)c(C(=O)O)c(-c3cccs3)oc2c1 [Example 32, 2-(2-thiophenyl)-3-carboxy-7-methyl-(4H)-4-benzopyranone] | 23.6% | 202 to 203 °C |
| Cc1cccc2c(=O)c(C(=O)O)c(-c3ccco3)oc12 [Example 20, 2-(2-furanyl)-3-carboxy-8-methyl-(4H)-4-benzopyranone] | 59% | 227 to 228 °C |
| Cc1ccc2c(=O)c(C(=O)O)c(-c3ccco3)oc2c1 [Example 21, 2-(2-furanyl)-3-carboxy-7-methyl-(4H)-4-benzopyranone] | 55.2% | 217 to 218 °C |
| Cc1ccc2oc(-c3ccco3)c(C(=O)O)c(=O)c2c1 [Example 22, 2-(2-furanyl)-3-carboxy-6-methyl-(4H)-4-benzopyranone] | 50.4% | 195 to 197 °C |
| Cc1cccc2c(=O)c(C(=O)O)c(-c3cccc(F)c3F)oc12 [Example 52, 2-(2,3-difluorophenyl)-3-carboxy-8-methyl-(4H)-4-benzopyranone] | 18.5% | 167 to 169 °C |
| Cc1cccc(-c2oc3c(C)cccc3c(=O)c2C(=O)O)c1 [Example 25, 2-(3-methylphenyl)-3-carboxy-8-methyl-(4H)-4-benzopyranone] | 41% | 209 to 211 °C |
| Cc1ccc2oc(-c3cccc(F)c3)c(C(=O)O)c(=O)c2c1 [Example 43, 2-(3-fluorophenyl)-3-carboxy-6-methyl-(4H)-4-benzopyranone] | 19.4% | 214 to 215 °C |
| Cc1ccc2c(=O)c(C(=O)O)c(-c3cc(F)cc(F)c3)oc2c1 [Example 48, 2-(3,5-difluorophenyl)-3-carboxy-7-methyl-(4H)-4-benzopyranone] | 29% | 220 to 222 °C |
| O=C(O)c1c(-c2cccs2)oc2ccccc2c1=O [Example 15, 2-(2-thiophenyl)-3-carboxy-(4H)-4-benzopyranone] | 47.5% | 175 to 176 °C |
| Cc1ccc2oc(-c3cccc(F)c3F)c(C(=O)O)c(=O)c2c1 [Example 54, 2-(2,3-difluorophenyl)-3-carboxy-6-methyl-(4H)-4-benzopyranone] | 26.5% | 120 to 122 °C |

| Compound | inhibition at 50 µM (TNF) | melting point |
| --- | --- | --- |
| O=C(O)c1c(-c2ccco2)oc2ccccc2c1=O [Example 18, 2-(2-furanyl)-3-carboxy-(4H)-4-benzopyranone] | 48.6% | 202 to 205 °C |
| Cc1ccc2c(=O)c(C(=O)O)c(-c3ccc(Cl)cc3)oc2c1 [Example 69, 2-(4-chlorophenyl)-3-carboxy-7-methyl-(4H)-4-benzopyranone] | 14.6% | 220 to 222 °C |
| Cc1ccc2c(=O)c(C(=O)O)c(-c3ccc(F)c(F)c3)oc2c1 [Example 65, 2-(3,4-difluorophenyl)-3-carboxy-7-methyl-(4H)-4-benzopyranone] | 25.1% | 202 to 204 °C |
| Cc1cccc2c(=O)c(C(=O)O)c(-c3ccc(F)c(F)c3)oc12 [Example 64, 2-(3,4-difluorophenyl)-3-carboxy-8-methyl-(4H)-4-benzopyranone] | 47.2% | 203 to 204 °C |
| Cc1ccc2c(=O)c(C(=O)O)c(-c3cccc(F)c3F)oc2c1 [Example 53, 2-(2,3-difluorophenyl)-3-carboxy-7-methyl-(4H)-4-benzopyranone] | 22.8% | 155 to 156 °C |
| Cc1cccc(-c2oc3ccc(Cl)cc3c(=O)c2C(=O)O)c1 [Example 29, 2-(3-methylphenyl)-3-carboxy-6-chloro-(4H)-4-benzopyranone] | 45.7% | 218 to 220 °C |
| Cc1ccc2oc(-c3cccs3)c(C(=O)O)c(=O)c2c1 [Example 33, 2-(2-thiophenyl)-3-carboxy-6-methyl-(4H)-4-benzopyranone] | 20.7% | 153 to 155 °C |
| COc1ccc2c(=O)c(C(=O)O)c(-c3ccccc3Cl)oc2c1 [Example 10, 2-(2-chlorophenyl)-3-carboxy-7-methoxy-(4H)-4-benzopyranone] | 45.6% | 130 to 132 °C |
| COc1ccc2c(=O)c(C(=O)O)c(-c3cccs3)oc2c1 [Example 13, 2-(2-thiophenyl)-3-carboxy-7-methoxy-(4H)-4-benzopyranone] | 55.9% | 205 to 207 °C |
| Cc1cccc2c(=O)c(C(=O)O)c(-c3cccc(F)c3)oc12 [Example 41, 2-(3-fluorophenyl)-3-carboxy-8-methyl-(4H)-4-benzopyranone] | 37.2% | 227 to 229 °C |
| COc1ccc(-c2oc3cc(Cl)ccc3c(=O)c2C(=O)O)cc1OC [Example 39, 2-(3,4-dimethoxyphenyl)-3-carboxy-7-chloro-(4H)-4-benzopyranone] | 24.5% | 226 to 227 °C |
| Cc1cccc(-c2oc3ccccc3c(=O)c2C(=O)O)c1 [Example 19, 2-(3-methylphenyl)-3-carboxy-(4H)-4-benzopyranone] | 48.3% | 162 to 164 °C |
| Cc1ccc2c(=O)c(C(=O)O)c(-c3cc(F)ccc3F)oc2c1 [Example 59, 2-(2,5-difluorophenyl)-3-carboxy-7-methyl-(4H)-4-benzopyranone] | 32.3% | 156 to 158 °C |
| O=C(O)c1c(-c2cccs2)oc2cc(Cl)ccc2c1=O [Example 34, 2-(2-thiophenyl)-3-carboxy-7-chloro-(4H)-4-benzopyranone] | 21.7% | 232 to 233 °C |
| Cc1cccc2c(=O)c(C(=O)O)c(-c3cc(F)cc(F)c3)oc12 [Example 47, 2-(3,5-difluorophenyl)-3-carboxy-8-methyl-(4H)-4-benzopyranone] | 21.4% | 243 to 244 °C |
| Cc1ccc2oc(-c3cc(F)ccc3F)c(C(=O)O)c(=O)c2c1 [Example 60, 2-(2,5-difluorophenyl)-3-carboxy-6-methyl-(4H)-4-benzopyranone] | 28.1% | ≥ 120 °C |
| Cc1ccc2oc(-c3ccc(F)c(F)c3)c(C(=O)O)c(=O)c2c1 [Example 66, 2-(3,4-difluorophenyl)-3-carboxy-6-methyl-(4H)-4-benzopyranone] | 37% | 222 to 223 °C |
| Cc1cccc(-c2oc3cc(Cl)ccc3c(=O)c2C(=O)O)c1 [Example 28, 2-(3-methylphenyl)-3-carboxy-7-chloro-(4H)-4-benzopyranone] | 34.9% | 179 to 181 °C |
| COc1ccc2oc(-c3cccs3)c(C(=O)O)c(=O)c2c1 [Example 14, 2-(2-thiophenyl)-3-carboxy-6-methoxy-(4H)-4-benzopyranone] | 38.8% | 172 to 174 °C |
